# Source: the supplement of paper PMC11451515
# Tested on: SEM cells
# Assay: cell viability relative to DMSO control; higher = less cytotoxic
# Conditions: 48 h
# Outline: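 Library compounds in DMSO were pin-dosed into 1536-well plates (5 μl) holding NOMO1 or SEM (500 cells/well) or P12-Ichikawa (1000 cells/well) leukemia cells, across an 11-point threefold series of 47 μM to 0.79 nM. Each cell line had been adapted for at least four passages in each medium. CellTiter-Glo One luminescence was read after 48 h at 37°C. Viability is the per-plate percentage relative to DMSO wells, with cell-free wells as background.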
# [1] = HPLM + 10% dialyzed FBS, 0.000781 µM
# [2] = HPLM + 10% dialyzed FBS, 0.00234 µM
# [3] = HPLM + 10% dialyzed FBS, 0.00702 µM
# [4] = HPLM + 10% dialyzed FBS, 0.0211 µM
# [5] = HPLM + 10% dialyzed FBS, 0.0632 µM
# [6] = HPLM + 10% dialyzed FBS, 0.19 µM
# [7] = HPLM + 10% dialyzed FBS, 0.569 µM
# [8] = HPLM + 10% dialyzed FBS, 1.71 µM
# [9] = HPLM + 10% dialyzed FBS, 5.12 µM
# [10] = HPLM + 10% dialyzed FBS, 15.4 µM
# [11] = HPLM + 10% dialyzed FBS, 46.1 µM
# [12] = RPMI 5 mM glucose + 10% FBS, 0.000781 µM
# [13] = RPMI 5 mM glucose + 10% FBS, 0.00234 µM
# [14] = RPMI 5 mM glucose + 10% FBS, 0.00702 µM
# [15] = RPMI 5 mM glucose + 10% FBS, 0.0211 µM
# [16] = RPMI 5 mM glucose + 10% FBS, 0.0632 µM
# [17] = RPMI 5 mM glucose + 10% FBS, 0.19 µM
# [18] = RPMI 5 mM glucose + 10% FBS, 0.569 µM
# [19] = RPMI 5 mM glucose + 10% FBS, 1.71 µM
# [20] = RPMI 5 mM glucose + 10% FBS, 5.12 µM
# [21] = RPMI 5 mM glucose + 10% FBS, 15.4 µM
# [22] = RPMI 5 mM glucose + 10% FBS, 46.1 µM
# [23] = RPMI 5 mM glucose + 10% dialyzed FBS, 0.000781 µM
# [24] = RPMI 5 mM glucose + 10% dialyzed FBS, 0.00234 µM
# [25] = RPMI 5 mM glucose + 10% dialyzed FBS, 0.00702 µM
# [26] = RPMI 5 mM glucose + 10% dialyzed FBS, 0.0211 µM
# [27] = RPMI 5 mM glucose + 10% dialyzed FBS, 0.0632 µM
# [28] = RPMI 5 mM glucose + 10% dialyzed FBS, 0.19 µM
# [29] = RPMI 5 mM glucose + 10% dialyzed FBS, 0.569 µM
# [30] = RPMI 5 mM glucose + 10% dialyzed FBS, 1.71 µM
# [31] = RPMI 5 mM glucose + 10% dialyzed FBS, 5.12 µM
# [32] = RPMI 5 mM glucose + 10% dialyzed FBS, 15.4 µM
# [33] = RPMI 5 mM glucose + 10% dialyzed FBS, 46.1 µM
SMILES,cell viability [1] [%],cell viability [2] [%],cell viability [3] [%],cell viability [4] [%],cell viability [5] [%],cell viability [6] [%],cell viability [7] [%],cell viability [8] [%],cell viability [9] [%],cell viability [10] [%],cell viability [11] [%],cell viability [12] [%],cell viability [13] [%],cell viability [14] [%],cell viability [15] [%],cell viability [16] [%],cell viability [17] [%],cell viability [18] [%],cell viability [19] [%],cell viability [20] [%],cell viability [21] [%],cell viability [22] [%],cell viability [23] [%],cell viability [24] [%],cell viability [25] [%],cell viability [26] [%],cell viability [27] [%],cell viability [28] [%],cell viability [29] [%],cell viability [30] [%],cell viability [31] [%],cell viability [32] [%],cell viability [33] [%]
CN1CCC(CC1)=C2C3=C(C=CC=C3)\C=C/C4=C2C=CC=C4,102,109,120,121,125,126,123,112,131,105,103,118,121,126,115,125,135,139,138,130,113,101,101,109,117,117,133,134,130,104,119,112,86.7
COc1cc(OC)c(C(=O)CCCN2CCCC2)c(OC)c1,119,117,127,114,115,108,115,113,93,107,109,122,143,118,135,126,118,127,112,109,105,123,–,–,–,–,–,–,–,–,–,–,–
COC(=O)Nc1nc2ccc([S+]([O-])c3ccccc3)cc2[nH]1 (stereo unspecified),77.9,97.3,96.5,100,99.5,94.5,87.9,94.4,84,59.3,57.7,113,114,109,104,116,111,107,121,89.6,67.7,63,106,112,113,111,124,122,105,122,102,59.6,69.4
N#Cc1ccnc(N2C(=O)CC[C@H]2C(=O)N(c2cncc(F)c2)[C@H](C(=O)NC2CC(F)(F)C2)c2ccccc2Cl)c1,94.8,104,92.2,83.1,93.7,96.7,93.6,87.6,25.4,17.6,19.1,119,144,119,132,146,134,108,50.5,19.1,14.9,16.1,104,100,94.6,110,91.9,101,105,85.9,34,16.4,17.9
